The source made the active and inactive calls. The calls are words filed in the database; no cut-off is given here.
Assays:
[1] = target: Histone deacetylase (Homo sapiens) (UniProt Q13547+O15379+Q9UBN7+Q92769+Q9UQL6+Q8WUI4+Q9BY41+Q96DB2+P56524+Q9UKV0+Q969S8); assay: Inhibition of HDAC in human HepG2 cells assessed as increase in Ac-H3K9 expression at 1.25 to 20 uM measured after 24 hrs by Western blot analysis; assay type: cell-based; settings: dose 1.25-20 µM
[2] = system: HeLa; assay: Antiproliferative activity against human HeLa cells measured after 72 hrs by MTT assay; assay type: functional, cell-based
[3] = system: HepG2; assay: Induction of apoptosis in human HepG2 cells assessed as viable cells at 20 uM measured after 48 hrs by Annexin V-FITC/propidium iodide staining based flow cytometry (reference value: 88.58%); assay type: functional; settings: read-out: Activity
[4] = system: HepG2; assay: Induction of apoptosis in human HepG2 cells assessed as early apoptotic cells at 10 uM measured after 48 hrs by Annexin V-FITC/propidium iodide staining based flow cytometry (reference value: 6.87%); assay type: functional
[5] = system: HepG2; assay: Induction of apoptosis in human HepG2 cells assessed as necrotic cells at 10 uM measured after 48 hrs by Annexin V-FITC/propidium iodide staining based flow cytometry (reference value: 0%); assay type: functional
[6] = system: HepG2; assay: Cell cycle arrest in human HepG2 cells assessed as accumulation at G0/G1 phase at 2.5 uM measured after 48 hrs by propidium iodide staining based flow cytometry (reference value: 55.24%); assay type: functional
[7] = system: HepG2; assay: Antiproliferative activity against human HepG2 cells measured after 72 hrs by MTT assay; assay type: functional, cell-based; settings: HepG2, 72 h
[8] = system: HepG2; assay: Cell cycle arrest in human HepG2 cells assessed as accumulation at G0/G1 phase at 10 uM measured after 48 hrs by propidium iodide staining based flow cytometry (reference value: 55.24%); assay type: functional
[9] = system: HepG2; assay: Induction of apoptosis in human HepG2 cells assessed as necrotic cells at 20 uM measured after 48 hrs by Annexin V-FITC/propidium iodide staining based flow cytometry (reference value: 0%); assay type: functional
[10] = system: HepG2; assay: Induction of apoptosis in human HepG2 cells assessed as viable cells at 10 uM measured after 48 hrs by Annexin V-FITC/propidium iodide staining based flow cytometry (reference value: 88.58%); assay type: functional; settings: read-out: Activity
[11] = system: HepG2; assay: Induction of apoptosis in human HepG2 cells assessed as necrotic cells at 1.25 uM measured after 48 hrs by Annexin V-FITC/propidium iodide staining based flow cytometry (reference value: 0%); assay type: functional
[12] = system: HepG2; assay: Antimigratory activity against human HepG2 cells measured after 24 hrs by wound healing assay; assay type: functional, cell-based; settings: dose 1.5-5 µM, DDE = dose-dependent effect
[13] = Half life in rat liver microsomes at 1 uM by LC-MS/MS analysis; assay type: ADME, Microsome
[14] = system: HepG2; assay: Induction of apoptosis in human HepG2 cells assessed as early apoptotic cells at 1.25 uM measured after 48 hrs by Annexin V-FITC/propidium iodide staining based flow cytometry (reference value: 6.87%); assay type: functional
[15] = system: HepG2; assay: Induction of apoptosis in human HepG2 cells assessed as late apoptotic cells at 5 uM measured after 48 hrs by Annexin V-FITC/propidium iodide staining based flow cytometry (reference value: 4.55%); assay type: functional
[16] = system: HCT-116; assay: Antiproliferative activity against human HCT-116 cells measured after 72 hrs by MTT assay; assay type: functional, cell-based; settings: HCT-116, 72 h
[17] = system: HepG2; assay: Induction of apoptosis in human HepG2 cells assessed as increase in cleaved caspase-3 expression at 1.25 to 20 uM measured after 48 hrs by Western blot analysis; assay type: functional, cell-based; settings: dose 1.25-20 µM
[18] = system: HepG2; assay: Induction of apoptosis in human HepG2 cells assessed as late apoptotic cells at 1.25 uM measured after 48 hrs by Annexin V-FITC/propidium iodide staining based flow cytometry (reference value: 4.55%); assay type: functional
[19] = Intrinsic clearance in rat liver microsomes at 1 uM by LC-MS/MS analysis; assay type: ADME, Microsome; settings: read-out: CLH
[20] = system: HepG2; assay: Cell cycle arrest in human HepG2 cells assessed as accumulation at G0/G1 phase at 5 uM measured after 48 hrs by propidium iodide staining based flow cytometry (reference value: 55.24%); assay type: functional
[21] = system: HepG2; assay: Cell cycle arrest in human HepG2 cells assessed as accumulation at G2/M phase at 2.5 uM measured after 48 hrs by propidium iodide staining based flow cytometry (reference value: 12.37%); assay type: functional

- inhibition [1]: Active
- IC50 [2]: 3.34 µM
- IC50 [7]: 2.74 µM
- half-life at 1 µM [13]: 16 min
- IC50 [16]: 11.1 µM
- CLint scaled at 1 µM [19]: 155 mL/min/kg
Structure (SMILES): COc1cc2nc(N3CCN(CCCCCC(=O)NO)CC3)nc(NC3CCN(Cc4ccccc4)CC3)c2cc1OC
- viability at 20 µM [3]: 33.1%
- Activity [4]: 16.02%
- Activity [5]: 0%
- Activity [6]: 57.88%
- Activity [8]: 59.81%
- Activity [9]: 0%
- viability at 10 µM [10]: 77.8%
- Activity [11]: 0%
- Activity [12]: Dde
- Activity [14]: 8.83%
- Activity [15]: 4.14%
- Activity [17]: Active
- Activity [18]: 2.68%
- Activity [20]: 58.07%
- Activity [21]: 13.29%
